Test results published in US12398132B2, “Derivatives of 4-(imidazo[1,2-a]pyridin-3-yl)-n-(pyridinyl)pyrimidin-2-amine as therapeutic agents” (AUCENTRA THERAPEUTICS PTY LTD, priority 2019, dated 2025).

Experiments:
U937 = test: Proliferation assay (resazurin/MTT), U937; assay type: cell-based; details: Homo sapiens, U-937, read-out: 72 h Growth inhibition GI50, U937 cells
CDK6/D3 = CDK6/D3 (Homo sapiens, UniProt Q00534); test: ADP Glo kinase assay, CDK6/D3; assay type: biochemical; details: CDK6D3; compound at 1 μM (values marked *); read-out: residual enzymatic activity (%) at 1 μM*
Protocol: (§1) Inhibition of FLT3(WT), FLT3(ITD) and FLT3(D835Y) and CDKs were determined using ADP Glo Kinase assays (Promega Corporation, Madison, WI, USA). […] Similarly, kinase reaction for CDK4/D1 and CDK6/D3 was performed with reaction buffer (40 nM Tris base pH 7.5, 20 mM MgCl2, 0.4 mM DTT), 0.1 mg/ml BSA and RB-CTF substrate (retinoblastoma protein1 C-terminal fraction). For CDK9/CyclinT1, the kinase reaction was performed with the standard assay buffer and Kinase Dilution Buffer and RBER-IRStide substrate. Half-maximal inhibition (IC50) values were calculated using a 4-parameter logistic non-linear regression model with Graphpad prism (Version 6.0). Apparent inhibition constants (Ki) values were calculated from Km (ATP) and IC50 values for the respective kinases.

CDK2E1 = CDK2E1 (Homo sapiens, UniProt P24941); details: 1 µM
CDK9/CyclinT1 = CDK9/CyclinT1 (Homo sapiens, UniProt P50750); test: ADP Glo kinase assay, CDK9/CyclinT1; assay type: biochemical; details: CDK9T1; compound at 1 μM (values marked *); read-out: residual enzymatic activity (%) at 1 μM*
Protocol: as §1

MV-4-11 = test: Proliferation assay (resazurin/MTT), MV-4-11; assay type: cell-based; details: Homo sapiens, MV4-11, read-out: 72 h Growth inhibition GI50, MV-4-11 cells
CDK1B = CDK1B (Homo sapiens, UniProt P06493); details: 1 µM
CDK4/D1 = CDK4/D1 (Homo sapiens, UniProt P11802); test: ADP Glo kinase assay, CDK4/D1; assay type: biochemical; details: CDK4D1; compound at 1 μM (values marked *); read-out: residual enzymatic activity (%) at 1 μM*
Protocol: as §1

CDK7HMAT1 = CDK7HMAT1 (Homo sapiens, UniProt P50613); details: 1 µM;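 further: kinase activity measured with an ADP-Glo luminescent kinase assay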
CDK7HMAT1, sequence (P50613 whole entry): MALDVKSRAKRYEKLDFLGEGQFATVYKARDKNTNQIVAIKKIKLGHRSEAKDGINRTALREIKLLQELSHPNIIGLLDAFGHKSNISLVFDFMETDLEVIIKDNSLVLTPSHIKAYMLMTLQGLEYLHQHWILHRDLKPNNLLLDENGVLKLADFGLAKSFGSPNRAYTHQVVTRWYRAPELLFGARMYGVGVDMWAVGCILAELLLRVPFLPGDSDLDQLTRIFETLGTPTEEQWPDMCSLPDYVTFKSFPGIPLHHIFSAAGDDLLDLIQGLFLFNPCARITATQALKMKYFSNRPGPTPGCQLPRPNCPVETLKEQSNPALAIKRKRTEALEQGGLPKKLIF
CDK7HMAT1, sequence (P51946 whole entry partner): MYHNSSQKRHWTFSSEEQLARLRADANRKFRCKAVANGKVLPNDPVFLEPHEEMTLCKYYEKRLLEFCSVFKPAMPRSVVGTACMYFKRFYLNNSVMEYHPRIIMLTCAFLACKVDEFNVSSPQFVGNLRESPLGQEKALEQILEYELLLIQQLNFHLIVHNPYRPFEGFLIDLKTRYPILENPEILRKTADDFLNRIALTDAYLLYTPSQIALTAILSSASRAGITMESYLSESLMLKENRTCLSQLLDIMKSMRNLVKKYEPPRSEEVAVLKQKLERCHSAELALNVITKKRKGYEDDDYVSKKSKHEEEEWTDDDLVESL
CDK7HMAT1, sequence (P51948 whole entry partner): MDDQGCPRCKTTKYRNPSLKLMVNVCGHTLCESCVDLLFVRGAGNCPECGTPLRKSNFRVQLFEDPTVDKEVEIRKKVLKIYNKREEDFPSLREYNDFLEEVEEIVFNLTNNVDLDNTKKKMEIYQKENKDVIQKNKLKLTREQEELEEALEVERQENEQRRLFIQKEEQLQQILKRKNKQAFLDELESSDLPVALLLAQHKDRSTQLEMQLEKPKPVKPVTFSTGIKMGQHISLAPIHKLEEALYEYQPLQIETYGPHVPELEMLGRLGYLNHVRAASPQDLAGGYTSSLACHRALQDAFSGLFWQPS
Protocol: Inhibition of FLT3(WT), FLT3(ITD) and FLT3(D835Y) and CDKs were determined using ADP Glo Kinase assays (Promega Corporation, Madison, WI, USA). […] The kinase reactions are run for an optimised time period (FLT3-WT: 120 min, FLT3-ITD: 80 min, FLT3-D835Y: 100 min) at room temperature and then the reaction was stopped by adding 5 μL of ADP Glo reagent. […] Positive and negative controls were performed in 0.5% DMSO in the presence and absence of each FLT3 kinase, respectively. […] Half-maximal inhibition (IC50) values were calculated using a 4-parameter logistic non-linear regression model with Graphpad prism (Version 6.0). Apparent inhibition constants (Ki) values were calculated from Km (ATP) and IC50 values for the respective kinases.

CDK6/D3, sequence (Q00534 whole entry, species assumed): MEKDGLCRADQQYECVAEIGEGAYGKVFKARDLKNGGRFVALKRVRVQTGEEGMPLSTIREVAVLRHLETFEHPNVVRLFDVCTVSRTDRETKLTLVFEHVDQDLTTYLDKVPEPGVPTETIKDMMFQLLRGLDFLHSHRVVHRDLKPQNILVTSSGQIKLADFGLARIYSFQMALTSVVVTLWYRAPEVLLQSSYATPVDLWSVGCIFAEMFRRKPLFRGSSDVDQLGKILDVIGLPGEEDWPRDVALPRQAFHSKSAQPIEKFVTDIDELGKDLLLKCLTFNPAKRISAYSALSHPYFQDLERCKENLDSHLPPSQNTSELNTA
CDK6/D3, sequence (P30281 whole entry partner, species assumed): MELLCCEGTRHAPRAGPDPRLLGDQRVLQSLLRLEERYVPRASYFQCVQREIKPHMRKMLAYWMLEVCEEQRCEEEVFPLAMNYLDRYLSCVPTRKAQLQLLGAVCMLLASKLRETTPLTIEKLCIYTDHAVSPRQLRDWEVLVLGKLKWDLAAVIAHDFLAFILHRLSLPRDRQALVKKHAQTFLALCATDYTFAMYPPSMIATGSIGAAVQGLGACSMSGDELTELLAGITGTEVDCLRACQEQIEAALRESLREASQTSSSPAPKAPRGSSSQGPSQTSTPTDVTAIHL
CDK1B, sequence (P06493 whole entry): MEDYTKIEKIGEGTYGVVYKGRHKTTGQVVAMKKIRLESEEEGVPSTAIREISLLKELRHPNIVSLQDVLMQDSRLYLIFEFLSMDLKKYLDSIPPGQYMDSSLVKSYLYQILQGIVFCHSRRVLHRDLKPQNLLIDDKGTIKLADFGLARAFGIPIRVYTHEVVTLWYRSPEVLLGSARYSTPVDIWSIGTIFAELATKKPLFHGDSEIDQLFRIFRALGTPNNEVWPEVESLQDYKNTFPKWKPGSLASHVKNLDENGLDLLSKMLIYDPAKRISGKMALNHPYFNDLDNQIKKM
CDK1B, sequence (P14635 whole entry partner): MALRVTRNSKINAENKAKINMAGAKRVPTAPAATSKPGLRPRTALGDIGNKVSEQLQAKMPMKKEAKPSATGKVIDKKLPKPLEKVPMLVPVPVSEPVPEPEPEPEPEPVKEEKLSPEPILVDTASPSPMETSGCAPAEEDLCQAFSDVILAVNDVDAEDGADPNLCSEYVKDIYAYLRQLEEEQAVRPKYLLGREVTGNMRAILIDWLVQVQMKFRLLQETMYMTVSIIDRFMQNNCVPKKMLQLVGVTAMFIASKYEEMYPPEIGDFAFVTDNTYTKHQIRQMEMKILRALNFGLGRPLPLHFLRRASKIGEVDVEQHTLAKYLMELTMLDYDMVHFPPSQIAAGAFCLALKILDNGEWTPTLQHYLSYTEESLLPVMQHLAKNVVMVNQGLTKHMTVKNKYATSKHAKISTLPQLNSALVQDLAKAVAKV
CDK9/CyclinT1, sequence (P50750 whole entry, species assumed): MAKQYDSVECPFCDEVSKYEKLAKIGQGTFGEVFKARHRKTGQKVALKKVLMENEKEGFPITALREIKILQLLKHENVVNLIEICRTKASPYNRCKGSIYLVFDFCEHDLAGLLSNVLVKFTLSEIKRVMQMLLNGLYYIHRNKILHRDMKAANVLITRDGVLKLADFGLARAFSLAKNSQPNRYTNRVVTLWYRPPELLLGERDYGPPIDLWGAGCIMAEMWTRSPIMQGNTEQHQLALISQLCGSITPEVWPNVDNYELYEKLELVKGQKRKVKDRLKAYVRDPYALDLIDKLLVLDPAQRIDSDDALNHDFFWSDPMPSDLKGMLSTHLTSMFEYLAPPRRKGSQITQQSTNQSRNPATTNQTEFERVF
CDK9/CyclinT1, sequence (O60563 whole entry partner, species assumed): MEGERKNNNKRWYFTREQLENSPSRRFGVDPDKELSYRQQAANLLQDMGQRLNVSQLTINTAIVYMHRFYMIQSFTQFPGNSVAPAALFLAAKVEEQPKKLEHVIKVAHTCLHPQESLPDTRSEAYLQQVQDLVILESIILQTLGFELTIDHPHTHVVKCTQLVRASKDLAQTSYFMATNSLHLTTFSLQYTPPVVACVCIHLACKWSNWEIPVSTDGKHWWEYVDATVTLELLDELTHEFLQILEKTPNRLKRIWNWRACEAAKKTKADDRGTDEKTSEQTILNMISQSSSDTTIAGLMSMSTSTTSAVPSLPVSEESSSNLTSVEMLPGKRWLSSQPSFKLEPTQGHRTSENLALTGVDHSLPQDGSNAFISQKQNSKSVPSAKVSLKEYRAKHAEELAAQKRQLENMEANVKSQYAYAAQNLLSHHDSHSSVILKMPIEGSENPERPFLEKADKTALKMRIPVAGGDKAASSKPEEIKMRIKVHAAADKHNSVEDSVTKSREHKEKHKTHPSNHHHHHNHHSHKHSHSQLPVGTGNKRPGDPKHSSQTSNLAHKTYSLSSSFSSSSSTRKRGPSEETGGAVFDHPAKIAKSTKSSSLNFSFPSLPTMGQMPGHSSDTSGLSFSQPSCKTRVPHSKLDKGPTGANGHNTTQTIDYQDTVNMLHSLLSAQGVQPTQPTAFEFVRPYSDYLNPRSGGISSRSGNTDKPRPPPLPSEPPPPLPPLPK
CDK4/D1, sequence (P11802 whole entry, species assumed): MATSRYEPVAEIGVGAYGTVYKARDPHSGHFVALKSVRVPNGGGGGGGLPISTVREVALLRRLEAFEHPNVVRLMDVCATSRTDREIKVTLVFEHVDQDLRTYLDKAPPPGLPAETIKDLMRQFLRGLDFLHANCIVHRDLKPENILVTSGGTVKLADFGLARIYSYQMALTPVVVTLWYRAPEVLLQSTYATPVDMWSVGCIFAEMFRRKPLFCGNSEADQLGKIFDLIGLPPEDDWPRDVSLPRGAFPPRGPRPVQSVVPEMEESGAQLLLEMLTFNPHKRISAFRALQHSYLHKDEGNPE
CDK4/D1, sequence (P24385 whole entry partner, species assumed): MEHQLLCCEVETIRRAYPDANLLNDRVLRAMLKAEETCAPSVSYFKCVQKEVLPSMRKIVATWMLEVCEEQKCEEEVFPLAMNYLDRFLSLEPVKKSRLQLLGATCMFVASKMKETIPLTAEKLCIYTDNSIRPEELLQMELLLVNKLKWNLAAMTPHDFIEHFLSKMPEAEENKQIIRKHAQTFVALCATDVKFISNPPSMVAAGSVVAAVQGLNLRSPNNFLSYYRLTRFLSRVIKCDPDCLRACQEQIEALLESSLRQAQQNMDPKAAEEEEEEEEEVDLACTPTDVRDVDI

Compound | GI50 (U937) [nM] | remaining activity at 1 µM (CDK6/D3) [%] | activity (CDK2E1) [%] | remaining activity at 1 µM (CDK9/CyclinT1) [%] | GI50 (MV-4-11) [nM] | activity (CDK1B) [%] | remaining activity at 1 µM (CDK4/D1) [%] | activity (CDK7HMAT1) [%]
CC(=O)N1CCN(c2ccc(Nc3nccc(-c4cnc5ccc(Nc6ccccc6)cn45)n3)nc2)CC1 [Cmpd 28, 1-(4-(6-((4-(6-(Phenylamino)imidazo[1,2-a]pyridin-3-yl)pyrimidin-2-yl)amino)pyridin-3-yl)piperazin-1-yl)ethan-1-one] | 1490 | 80 | 86 | 61 | 6 | 98 | 77 | 91
CC(=O)N1CCN(c2ccc(Nc3ncc(F)c(-c4cnc5ccccn45)n3)nc2)CC1 [Cmpd 29, 1-(4-(6-((5-Fluoro-4-(imidazo[1,2-a]pyridin-3-yl)pyrimidin-2-yl)amino)pyridin-3-yl)piperazin-1-yl)ethan-1-one] | 393 | 59 | 47 | 36 | 43 | 100 | 59 | 82
CC(=O)N1CCN(c2ccc(Nc3ncc(F)c(-c4cnc5ccc(F)cn45)n3)nc2)CC1 [Cmpd 30, 1-(4-(6-((5-Fluoro-4-(6-fluoroimidazo[1,2-a]pyridin-3-yl)pyrimidin-2-yl)amino)pyridin-3-yl)piperazin-1-yl)ethan-1-one] | 4040 | 58 | 51 | 33 | 72 | 96 | 55 | 77
CC(=O)N1CCN(c2ccc(Nc3ncc(F)c(-c4cnc5ccc(C(F)(F)F)cn45)n3)nc2)CC1 [Cmpd 32, 1-(4-(6-((5-Fluoro-4-(6-(trifluoromethyl)imidazo[1,2-a]pyridin-3-yl)pyrimidin-2-yl)amino)pyridin-3-yl)piperazin-1-yl)ethan-1-one] | 821 | 70 | 65 | 82 | 24 | 93 | 67 | 84
CC(=O)N1CCN(c2ccc(Nc3nccc(-c4cnc5ccc(-c6coc7ccccc67)cn45)n3)nc2)CC1 [Cmpd 33, 1-(4-(6-((4-(6-(Benzofuran-3-yl)imidazo[1,2-a]pyridin-3-yl)pyrimidin-2-yl)amino)pyridin-3-yl)piperazin-1-yl)ethan-1-one] | 1860 | 79 | 84 | 72 | 3 | 98 | 60 | 88

The next lines start with the values.

GI50 (U937) [nM] | remaining activity at 1 µM (CDK6/D3) [%] | activity (CDK2E1) [%] | remaining activity at 1 µM (CDK9/CyclinT1) [%] | GI50 (MV-4-11) [nM] | activity (CDK1B) [%] | remaining activity at 1 µM (CDK4/D1) [%] | activity (CDK7HMAT1) [%] | Compound
2490 | 77 | 75 | 100 | 66 | 99 | 55 | 80 | CC(=O)N1CCN(c2ccc(Nc3nccc(-c4cnc5ccc(-c6cn(S(=O)(=O)c7ccccc7)c7ccccc67)cn45)n3)nc2)CC1 [Cmpd 34, 1-(4-(6-((4-(6-(1-(Phenylsulfonyl)-1H-indol-3-yl)imidazo[1,2-a]pyridin-3-yl)pyrimidin-2-yl)amino)pyridin-3-yl)piperazin-1-yl)ethan-1-one]
> 10000 | 76 | 100 | 91 | 7 | 81 | 77 | 81 | CC(=O)N1CCN(c2ccc(Nc3nccc(-c4cnc5ccc(-c6csc7ccccc67)cn45)n3)nc2)CC1 [Cmpd 35, 1-(4-(6-((4-(6-(Benzo[b]thiophen-3-yl)imidazo[1,2-a]pyridin-3-yl)pyrimidin-2-yl)amino)pyridin-3-yl)piperazin-1-yl)ethan-1-one]
